Data from ChEMBL document CHEMBL1201862, “PubChem BioAssay data set” (2004).
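Results reflect a 48-hour exposure of cells in 96-well plates to compound at five concentrations. GI50: concentration for 50% inhibition of growth.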 The source made the active and inactive calls. Rule as the data show it: active = GI50 up to about 1.1 µM and inactive = higher.

How the values were obtained:
Test in all cases: NCI anticancer screen, dose series, 48 h
BT-549 = system: BT-549
CCRF-CEM = system: CCRF-CEM
NCI-H522 = system: NCI-H522
DU-145 = system: DU-145
MDA-MB-435 = system: MDA-MB-435
A549 = system: A549
SNB-19 = system: SNB-19
SW-620 = system: SW-620
NCI/ADR-RES = system: NCI/ADR-RES
NCI-H23 = system: NCI-H23
RXF 393 = system: RXF 393
OVCAR-8 = system: OVCAR-8
SF-295 = system: SF-295
OVCAR-5 = system: OVCAR-5
786-0 = system: 786-0
UACC-62 = system: UACC-62
IGROV-1 = system: IGROV-1
SNB-75 = system: SNB-75
SF-539 = system: SF-539
HL-60 = system: HL-60
TK-10 = system: TK-10
MDA-N = system: MDA-N
OVCAR-4 = system: OVCAR-4
SK-MEL-2 = system: SK-MEL-2
HT-29 = system: HT-29
CAKI-1 = system: CAKI-1
Malme-3M = system: Malme-3M
T47D = system: T47D
COLO 205 = system: COLO 205
SR = system: SR
K562 = system: K562
UACC-257 = system: UACC-257
SK-MEL-28 = system: SK-MEL-28
M14 = system: M14
HCT-116 = system: HCT-116
NCI-H460 = system: NCI-H460
PC-3 = system: PC-3
NCI-H226 = system: NCI-H226
HOP-62 = system: HOP-62
SN12C = system: SN12C
RPMI-8226 = system: RPMI-8226
MCF7 = system: MCF7
LOX IMVI = system: LOX IMVI
HOP-92 = system: HOP-92
HCC 2998 = system: HCC 2998
HCT-15 = system: HCT-15
SK-MEL-5 = system: SK-MEL-5
OVCAR-3 = system: OVCAR-3
A498 = system: A498
Hs-578T = system: Hs-578T
MOLT-4 = system: MOLT-4
EKVX = system: EKVX
MDA-MB-231 = system: MDA-MB-231
ACHN = system: ACHN
SF-268 = system: SF-268
U-251 = system: U-251

O=c1oc2ccccc2cc1P(=O)(O)O
GI50 (BT-549): > 100 µM (inactive)
GI50 (CCRF-CEM): > 100 µM (inactive)
GI50 (NCI-H522): > 100 µM (inactive)
GI50 (DU-145): > 100 µM (inactive)
GI50 (MDA-MB-435): > 100 µM (inactive)
GI50 (A549): > 100 µM (inactive)
GI50 (SNB-19): > 100 µM (inactive)
GI50 (SW-620): > 100 µM (inactive)
GI50 (NCI/ADR-RES): > 100 µM (inactive)
GI50 (NCI-H23): > 100 µM (inactive)
GI50 (RXF 393): > 100 µM (inactive)
GI50 (OVCAR-8): > 100 µM (inactive)
GI50 (SF-295): > 100 µM (inactive)
GI50 (OVCAR-5): > 100 µM (inactive)
GI50 (786-0): > 100 µM (inactive)
GI50 (UACC-62): > 100 µM (inactive)
GI50 (IGROV-1): > 100 µM (inactive)
GI50 (SNB-75): > 100 µM (inactive)
GI50 (SF-539): > 100 µM (inactive)
GI50 (HL-60): > 100 µM (inactive)
GI50 (TK-10): > 100 µM (inactive)
GI50 (MDA-N): > 100 µM (inactive)
GI50 (OVCAR-4): > 100 µM (inactive)
GI50 (SK-MEL-2): > 100 µM (inactive)
GI50 (HT-29): > 100 µM (inactive)
GI50 (CAKI-1): > 100 µM (inactive)
GI50 (Malme-3M): > 100 µM (inactive)
GI50 (T47D): > 100 µM (inactive)
GI50 (COLO 205): > 100 µM (inactive)
GI50 (SR): > 100 µM (inactive)
GI50 (K562): > 100 µM (inactive)
GI50 (UACC-257): > 100 µM (inactive)
GI50 (SK-MEL-28): > 100 µM (inactive)
GI50 (M14): > 100 µM (inactive)
GI50 (HCT-116): > 100 µM (inactive)
GI50 (NCI-H460): > 100 µM (inactive)
GI50 (PC-3): > 100 µM (inactive)
GI50 (NCI-H226): > 100 µM (inactive)
GI50 (HOP-62): > 100 µM (inactive)
GI50 (SN12C): > 100 µM (inactive)
GI50 (RPMI-8226): > 100 µM (inactive)
GI50 (MCF7): > 100 µM (inactive)
GI50 (LOX IMVI): > 100 µM (inactive)
GI50 (HOP-92): > 100 µM (inactive)
GI50 (HCC 2998): > 100 µM (inactive)
GI50 (HCT-15): > 100 µM
GI50 (SK-MEL-5): > 100 µM (inactive)
GI50 (OVCAR-3): > 100 µM (inactive)
GI50 (A498): > 100 µM (inactive)
GI50 (Hs-578T): > 100 µM (inactive)
GI50 (MOLT-4): > 100 µM (inactive)
GI50 (EKVX): > 100 µM (inactive)
GI50 (MDA-MB-231): > 100 µM (inactive)
GI50 (ACHN): > 100 µM (inactive)
GI50 (SF-268): > 100 µM (inactive)
GI50 (U-251): > 100 µM (inactive)
